Experimental data reported in paper PMC7841069, “Identification of Chalcone Derivatives as Inhibitors of Leishmania infantum Arginase and Promising Antileishmanial Agents” (Frontiers in Chemistry, 2021).
Read-outs that look alike come from different tables or passages of the source.

Legend:
[1] = Cytotoxicity assay (MTT); assay type: cell-based; conditions: mouse, read-out: RAW 264.7 CC50 ± SE
Experimental: (§1) RAW 264.7 macrophages were cultured in DMEM medium (Sigma-Aldrich, USA) supplemented with 10% fetal bovine serum at 37°C in 5% CO2 atmosphere. Cells were plated on 96-well microplates at a density of 10^5 cells/well and incubated at 37°C in 5% CO2 for 2 h. After this period, increasing concentrations of inhibitors (0.9–4,307 μM) were added and the cultures were incubated at 37°C in 5% CO2 for 48 h. Subsequently, cell viability was measured by a colorimetric assay using 3-(4,5-dimethylthiazol-2-yl)-2,5-diphenyl tetrazolium bromide (MTT) (Sigma-Aldrich, USA). MTT was added to the culture medium at a final concentration of 1.0 mg/mL, and cultures were incubated at 37°C in 5% CO2 for 3 h. MTT was transformed by the living cells in formazan crystals that were dissolved in DMSO. The concentration of formazan was measured spectrophotometrically at 570 nm (SpectraMax M5, Molecular Devices, CA). The 50% cytotoxic concentration (CC50) values were determined by the nonlinear regression fits of the dose-response curves using GraphPad Prism 8.0. All measurements were performed in triplicates, twice independently.

[2] = system: Leishmania infantum promastigotes; experiment: Activity against Leishmania infantum promastigotes (resazurin); assay type: cell-based; conditions: for Selectivity Index PRO: CC50 host cell / IC50 promastigotes; for IC50: Leishmania infantum, read-out: Promastigotes IC50 ± SE
Experimental: Promastigotes of Leishmania infantum strain MHOM/BR/1974/PP75 were cultured in Schneider's medium supplemented with 10% fetal bovine serum at 26°C. First, the selected LiARG inhibitors were diluted in culture medium at concentrations ranging from 2.9 to 1,723.0 μM. Then, late-exponential phase (after 96 h growth) L. infantum promastigotes, at a final density of 10^5 parasites/mL, were incubated with previously diluted inhibitors at 26°C for 96 h. Subsequently, parasite viability was determined by a colorimetric assay using resazurin (Sigma-Aldrich, USA). Resazurin was added to the culture medium at a final concentration of 0.001% (w/v), and cultures were further incubated at 26°C for 4 h (Rólon et al., [2006]). Resazurin is reduced to resorufin by living cells, and the relative concentration of resorufin/resazurin was measured spectrophotometrically at 570/600 nm (SpectraMax M5, Molecular Devices, CA), respectively. Fungizone® (2.0–650.0 nM) was used as the reference drug. The 50% inhibitory concentration (IC50) values were determined by the nonlinear regression fits of the dose-response curves using GraphPad Prism 8.0. All measurements were performed in triplicates, twice independently.
(§2) The selectivity index for promastigotes and intracellular amastigotes of L. infantum was calculated by taking the ratio between the CC50 obtained for the host cell and the IC50 obtained for the parasite. Inhibitors displaying selectivity index > 10 were considered low cytotoxic (Katsuno et al., [2015]).

[3] = system: RAW 264.7 macrophages; design: method as in Ventura et al. (2015); conditions: ref Ventura et al. (2015), read-out: IC50 for NO; cited from earlier work
[4] = system: Leishmania infantum intracellular amastigotes; experiment: Activity against intracellular amastigotes (promastigote recovery assay); assay type: cell-based; conditions: for Selectivity Index AMA: CC50 host cell / IC50 intracellular amastigotes
Experimental: (§3) Intracellular anti-amastigote activity was determined using the promastigote recovery assay with minor modifications (Ferreira et al., [2017]). RAW 264.7 macrophages were plated on 96-well microplates at a density of 10^5 cells/well and incubated at 37°C in 5% CO2 for 2 h. After this period, adherent cells were washed twice with phosphate buffered saline (PBS, pH 7.2) and infected with stationary-phase L. infantum promastigotes at a 10:1 parasite/macrophage ratio. After 4 h of infection at 37°C in 5% CO2, free parasites were removed by a wash step with PBS and infected macrophages were incubated for an additional 24 h to allow parasite differentiation into amastigotes. Then, infected cells were treated with increasing concentrations of selected LiARG inhibitors (11.0–54.0 μM) for 48 h. After this period, the culture supernatant was collected for the evaluation of NO production by the Griess reaction (Misko et al., [1993]), and cells were washed with PBS. Subsequently, PBHIL medium supplemented with 5% fetal bovine serum was added and the cultures were incubated at 26°C for 72 h to recover L. infantum promastigotes. Only viable amastigotes can differentiate into promastigotes. Then, parasite viability was determined by a colorimetric assay using MTT (1.0 mg/mL) (Sigma-Aldrich, USA), as described earlier. Fungizone® (130–540 nM) was used as the reference drug. Results were expressed as percentages of viability in relation to the control (100% viability). The 50% inhibitory concentration (IC50) values were determined by the nonlinear regression fits of the dose-response curves using GraphPad Prism 8.0. All measurements were performed in triplicates, twice independently.
as §2

[5] = system: L. infantum-infected macrophages; experiment: NO production by L. infantum-infected macrophages (Griess reaction); assay type: cell-based; conditions: 11–54 μM, 48 h, vs untreated control
Experimental: as §3
Figure 4 Effect of chalcone derivatives on the production of nitric oxide by L. infantum-infected macrophages. L. infantum-infected macrophages were treated with increasing concentrations of (A–D) chalcone derivatives (11–54 μM) or (E) the reference drug fungizone (0.13–0.54 μM) and nitrite concentration was measured by the Griess reaction. Control represents the amount of nitric oxide produced by L. infantum-infected macrophages in the absence of any treatment. Statistical analysis of the differences between mean values obtained for the experimental groups was done by ANOVA with Tukey's post hoc test.

[6] = system: RAW 264.7 macrophages; experiment: Cytotoxicity assay (MTT); assay type: cell-based; conditions: 48 h
Experimental: as §1

[7] = system: Leishmania infantum arginase (LiARG); experiment: LiARG enzyme inhibition assay (urea formation, UREA CE kit); assay type: biochemical; conditions: 100 μM inhibitor; control without inhibitor = 100% activity
Experimental: LiARG expression and purification was performed as described previously (Garcia et al., [2019]). Escherichia coli BL21 (DE3) cells were transformed with RP1B-LiARG. Cells were grown at 37°C until mid-exponential phase (Abs600 ~ 0.6). Protein expression was induced with 1 mM IPTG and cells were grown for 16 h at 30°C. Cells were harvested by centrifugation, resuspended in lysis buffer [50 mM Tris-HCl (pH 8.0), 500 mM NaCl, 5 mM imidazol, 0.1% Triton-X 100, 250 μM PMSF, 10 mM β-mercaptoethanol] and lysed by sonication (15 cycles 60 s on and 60 s off, 100 W). The cell lysate was centrifuged (8,000 X g, 40 min, 4°C), and the clarified supernatant was loaded onto a His-Trap HP column (GE Healthcare, USA). A wash step with 100 mM manganese chloride was carried out for enzyme activation. LiARG was eluted with an imidazole gradient ranging from 5 to 500 mM. […] LiARG activity was measured using the UREA CE kit (Labtest, Brazil). Urea concentration was determined spectrophotometrically (SpectraMax M5, Molecular Devices, CA) by hydrolyzing urea into ammonia and then converting ammonia into indophenol blue, which absorbs light at 600 nm ([…] and Scott, [1960]). Enzyme activity was measured with 0.2 μg/mL LiARG incubated with 50 mM L-arginine in 50 mM CHES (pH 9.5) at 37°C for 5 min. […] The results are expressed as percentage of LiARG activity taking the enzymatic activity of the control as 100%. […]

[8] = system: Leishmania amazonensis arginase (LaARG); design: method as in da Silva et al. (2019); conditions: 100 μM; ref da Silva et al. (2019); cited from earlier work
[9] = Leishmania infantum, Macrophage, 48 h, infected macrophages treated 48 h, promastigote recovery, MTT, read-out: Amastigotes IC50 ± SE

IC50 ([2]; 96 h, resazurin) [µM] | Compound | CC50 at 48 h ([1]; RAW 264.7 macrophages) [µM] | Selectivity Index PRO [2] | Selectivity Index AMA [4] | IC50 [4, 9] [µM] | production of NO by L. infantum-infected macrophages [5] | further results
283 ± 14.2 | COc1ccc(C=CC(=O)c2ccc(Br)cc2)cc1OC [LC14, 1-(4-bromophenyl)-3-(3,4-dimethoxyphenyl)-2-Propen-1-one] | 75.1 ± 8.9 | <1 | – | – | – | IC50 [3]: 58.9 ± 6.8 µM
747 ± 22.3 | COc1ccc(/C=C/C(=O)c2ccccc2Cl)cc1 [LC34] | 3010 | 4.0 | 46.0 | 65.4 ± 10.9 | no significant difference to the untreated control | –
> 1500 | O=C(c1ccccc1)C(C(O)c1ccccc1Cl)C(O)c1ccccc1Cl (stereo not shown) [LC37, 3-hydroxy-2-[-hydroxy(2-Chlorophenyl)methyl]-3-(2-Chlorophenyl)-1-phenyl-1-Propanone] | > 4000 | – | – | – | – | RAW 264.7 CC50 ± SE [6]: did not inhibit the growth of RAW 264.7 macrophages at the highest concentration tested; Promastigotes IC50 ± SE ([2]; 96 h, resazurin): did not display in vitro activity
– | O=C(C=Cc1ccc([N+](=O)[O-])cc1)c1ccc(Br)cc1 [LC39, 1-(4-Bromophenyl)-3-(4-Nitrophenyl)-2-Propen-1-one] | – | 11.4 | 107.1 | – | no significant difference to the untreated control | CC50 at 48 h [1]: 4530 ± 212 µM; IC50 ([2]; 96 h): 398 ± 44.2 µM; IC50 ([4]; Leishmania infantum, Macrophage, 48 h, read-out: Amastigotes IC50 ± SE, infected macrophages treated 48 h, promastigote recovery, MTT): 55.2 ± 3.8 µM; IC50 ([4]; read-out: Amastigotes IC50 ± SE, infected macrophages treated 48 h, promastigote recovery, MTT): 42.3 ± 17.1 µM
– | O=c1c(O)c(-c2ccc(O)c(O)c2)oc2cc(O)cc(O)c12 [quercetin] | – | – | – | – | – | ARGLi inhibition (%) (100 μM) [7]: 67.1 ± 10.3%
– | O=C1c2c(O)cc(O)cc2OC(c2ccc(O)c(O)c2)C1O (stereo not shown) [taxifolin] | – | – | – | – | – | LaARG inhibition [8]: 88%

Compound | IC50 ([2]; 96 h, resazurin) [µM] | CC50 at 48 h ([1]; RAW 264.7 macrophages) [µM] | Selectivity Index PRO [2] | Selectivity Index AMA [4] | IC50 [4, 9] [µM] | production of NO by L. infantum-infected macrophages [5] | further results
O=C(C=Cc1ccc(F)cc1)c1ccccc1Cl [LC32, 1-(2-Chlorophenyl)-3-(4-fluorophenyl)-2-Propen-1-one] | 74.1 ± 10.9 | 479 ± 19.5 | 6.5 | 4.3 | 112 ± 19.8 | significantly decreased | –
COc1ccc(C(=O)C=Cc2ccc([N+](=O)[O-])cc2)cc1 [LC41, 1-(4-Methoxyphenyl)-3-(4-Nitrophenyl)-2-Propen-1-one] | 319 ± 14.3 | 1150 | 3.6 | 26.2 | 70.4 ± 9.6 | significantly decreased | IC50 ([4]; infected macrophages treated 48 h, promastigote recovery, MTT, read-out: Amastigotes IC50 ± SE): 43.7 ± 13.7 µM; IC50 [3]: 13.5 ± 5.5 µM
